Data published in ChEMBL document CHEMBL1201862, “PubChem BioAssay data set” (2004).
Active and inactive are the calls of the source.

What was measured:
[1] = SAR analysis of small molecule inhibitors of Apaf-1 using a LZ-Caspase-9/Caspase-3 Fluorescent Selectivity assay - Set 2.; type: functional; conditions: read-out: IC50_Mean
[2] = molecular target: T1, Apoptotic protease-activating factor 1 (Homo sapiens, UniProt O14727); experiment: SAR analysis of small molecule Inhibitors of Apaf-1 in a Fluorescent assay - set 2.; type: functional; conditions: read-out: IC50_Mean
T1 sequence (O14727 whole entry): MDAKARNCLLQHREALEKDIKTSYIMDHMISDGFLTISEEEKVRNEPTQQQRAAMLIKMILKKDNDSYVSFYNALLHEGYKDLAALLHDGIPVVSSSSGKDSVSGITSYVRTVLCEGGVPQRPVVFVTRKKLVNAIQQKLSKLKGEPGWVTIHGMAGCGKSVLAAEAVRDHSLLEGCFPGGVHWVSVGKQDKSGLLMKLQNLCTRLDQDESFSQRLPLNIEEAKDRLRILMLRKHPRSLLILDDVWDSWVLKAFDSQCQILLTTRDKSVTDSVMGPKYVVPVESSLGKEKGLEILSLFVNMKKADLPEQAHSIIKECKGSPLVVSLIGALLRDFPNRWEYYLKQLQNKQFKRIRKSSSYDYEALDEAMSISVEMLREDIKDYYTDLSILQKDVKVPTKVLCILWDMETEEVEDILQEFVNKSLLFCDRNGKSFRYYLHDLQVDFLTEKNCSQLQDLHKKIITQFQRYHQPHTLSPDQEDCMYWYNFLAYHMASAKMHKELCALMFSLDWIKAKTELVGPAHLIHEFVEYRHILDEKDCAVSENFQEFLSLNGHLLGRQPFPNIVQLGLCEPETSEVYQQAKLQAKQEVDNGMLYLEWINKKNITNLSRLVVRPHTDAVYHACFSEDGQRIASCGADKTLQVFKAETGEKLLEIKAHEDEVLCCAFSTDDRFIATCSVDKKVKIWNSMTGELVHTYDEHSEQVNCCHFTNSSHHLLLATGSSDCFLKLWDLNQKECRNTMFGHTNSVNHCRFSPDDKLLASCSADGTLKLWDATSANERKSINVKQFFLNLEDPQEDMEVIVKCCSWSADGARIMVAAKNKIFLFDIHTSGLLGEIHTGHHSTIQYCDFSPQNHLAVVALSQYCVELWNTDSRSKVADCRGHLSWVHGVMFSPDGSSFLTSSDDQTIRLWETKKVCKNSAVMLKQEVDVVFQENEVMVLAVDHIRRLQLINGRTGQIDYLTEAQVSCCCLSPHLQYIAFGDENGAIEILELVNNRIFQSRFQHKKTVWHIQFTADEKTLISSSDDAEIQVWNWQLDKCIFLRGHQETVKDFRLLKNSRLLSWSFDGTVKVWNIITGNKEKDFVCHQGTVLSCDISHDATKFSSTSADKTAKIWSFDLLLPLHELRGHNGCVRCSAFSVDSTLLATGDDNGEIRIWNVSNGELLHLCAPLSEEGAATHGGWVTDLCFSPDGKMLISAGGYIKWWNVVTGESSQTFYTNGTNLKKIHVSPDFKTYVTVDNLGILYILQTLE

[3] = SAR analysis of small molecule activators of Apaf-1 using a LZ-Caspase-9/Caspase-3 Fluorescent Selectivity assay - Set 2.; type: functional; conditions: read-out: EC50_Mean
[4] = molecular target: T1, Apoptotic protease-activating factor 1; experiment: SAR analysis of small molecule Activators of Apaf-1 in a Fluorescent assay - set 2.; type: functional; conditions: read-out: EC50_Mean
[5] = molecular target: ALK tyrosine kinase receptor (Homo sapiens, UniProt Q9UM73); type: functional;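 further: ALK tested as one member of a kinase panel screen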
Chain of ALK tyrosine kinase receptor (Q9UM73 whole entry): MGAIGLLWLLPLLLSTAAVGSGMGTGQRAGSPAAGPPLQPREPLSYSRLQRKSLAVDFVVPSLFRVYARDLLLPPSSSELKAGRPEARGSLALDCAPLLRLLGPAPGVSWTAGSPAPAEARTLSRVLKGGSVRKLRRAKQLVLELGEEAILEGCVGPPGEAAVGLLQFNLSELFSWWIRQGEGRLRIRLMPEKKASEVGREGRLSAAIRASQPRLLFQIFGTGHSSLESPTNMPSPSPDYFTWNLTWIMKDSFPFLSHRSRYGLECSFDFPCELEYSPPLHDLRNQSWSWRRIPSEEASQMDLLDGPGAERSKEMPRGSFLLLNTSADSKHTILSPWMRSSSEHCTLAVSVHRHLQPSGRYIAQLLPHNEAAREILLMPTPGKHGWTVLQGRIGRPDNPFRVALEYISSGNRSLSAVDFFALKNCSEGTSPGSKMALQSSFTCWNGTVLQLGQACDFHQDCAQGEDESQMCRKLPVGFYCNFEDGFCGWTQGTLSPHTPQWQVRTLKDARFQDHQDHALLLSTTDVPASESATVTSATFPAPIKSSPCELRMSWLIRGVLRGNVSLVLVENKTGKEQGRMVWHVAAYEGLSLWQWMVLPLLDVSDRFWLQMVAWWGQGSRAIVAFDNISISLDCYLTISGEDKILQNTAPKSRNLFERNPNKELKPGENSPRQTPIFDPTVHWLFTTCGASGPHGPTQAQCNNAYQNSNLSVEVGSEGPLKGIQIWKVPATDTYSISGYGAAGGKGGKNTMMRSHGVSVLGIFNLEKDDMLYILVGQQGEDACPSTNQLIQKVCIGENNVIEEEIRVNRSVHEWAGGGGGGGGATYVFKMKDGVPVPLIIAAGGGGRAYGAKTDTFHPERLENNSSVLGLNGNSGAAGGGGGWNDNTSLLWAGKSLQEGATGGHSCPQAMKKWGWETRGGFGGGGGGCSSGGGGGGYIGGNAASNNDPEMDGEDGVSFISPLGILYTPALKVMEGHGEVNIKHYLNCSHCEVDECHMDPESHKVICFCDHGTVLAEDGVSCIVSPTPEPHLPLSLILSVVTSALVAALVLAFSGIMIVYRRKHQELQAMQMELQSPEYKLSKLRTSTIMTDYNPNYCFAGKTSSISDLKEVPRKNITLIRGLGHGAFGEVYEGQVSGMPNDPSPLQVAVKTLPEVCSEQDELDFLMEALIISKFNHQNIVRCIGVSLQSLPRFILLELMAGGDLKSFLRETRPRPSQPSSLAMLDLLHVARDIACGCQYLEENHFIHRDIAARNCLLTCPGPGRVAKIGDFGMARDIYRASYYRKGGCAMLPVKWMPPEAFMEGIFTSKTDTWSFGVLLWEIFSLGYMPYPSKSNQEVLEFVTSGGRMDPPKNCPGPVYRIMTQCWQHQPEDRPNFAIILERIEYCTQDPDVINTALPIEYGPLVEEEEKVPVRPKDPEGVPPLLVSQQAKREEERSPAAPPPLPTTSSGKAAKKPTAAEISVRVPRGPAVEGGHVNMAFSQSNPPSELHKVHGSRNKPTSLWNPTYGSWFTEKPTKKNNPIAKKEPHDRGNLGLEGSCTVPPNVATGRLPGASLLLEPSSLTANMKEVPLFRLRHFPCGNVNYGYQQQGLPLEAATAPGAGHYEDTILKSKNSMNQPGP

[6] = molecular target: Cell division cycle 7-related protein kinase (Homo sapiens, UniProt O00311); type: functional;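 further: value obtained from a kinome-wide kinase panel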
Chain of Cell division cycle 7-related protein kinase (O00311 whole entry): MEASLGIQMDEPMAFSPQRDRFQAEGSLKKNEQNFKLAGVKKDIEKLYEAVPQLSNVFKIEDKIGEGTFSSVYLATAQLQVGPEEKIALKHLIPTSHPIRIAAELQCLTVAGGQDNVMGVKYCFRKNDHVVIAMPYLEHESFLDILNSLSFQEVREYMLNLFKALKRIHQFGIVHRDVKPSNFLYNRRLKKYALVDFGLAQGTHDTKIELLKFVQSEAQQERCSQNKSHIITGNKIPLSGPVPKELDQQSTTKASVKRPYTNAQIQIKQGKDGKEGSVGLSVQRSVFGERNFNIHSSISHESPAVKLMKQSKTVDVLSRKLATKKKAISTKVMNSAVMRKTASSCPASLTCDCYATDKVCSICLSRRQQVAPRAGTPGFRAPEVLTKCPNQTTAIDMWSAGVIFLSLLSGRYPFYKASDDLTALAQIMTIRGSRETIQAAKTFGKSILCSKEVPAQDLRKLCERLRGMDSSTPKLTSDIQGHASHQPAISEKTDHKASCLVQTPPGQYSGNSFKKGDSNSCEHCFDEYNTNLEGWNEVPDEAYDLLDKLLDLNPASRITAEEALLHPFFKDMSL

[7] = NIH-3T3 fibroblast cytotoxicity, dose response, cytotoxicity control, cell-based, fluorescence, Alamar Blue, secondary assay (AID 2327); type: functional;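 further: NIH-3T3 mouse fibroblasts cultured with fluconazole at 8 µg/mL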
[8] = fluconazole-exposed Candida albicans growth modulators – fluorescence, retest, confirmation (AID 2467); type: functional, cell-based
[9] = Trypanosoma cruzi growth suppression in host cells – NIH3T3 host cells, beta-gal luminescence, confirmation (AID 2044); type: functional, cell-based;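 further: intracellular parasites grown in NIH/3T3 mouse fibroblasts as host cells; luminescent beta-galactosidase reporter signal from transgenic T. cruzi replicating inside host cells; inhibitors lower the luminescence signal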
[10] = microbe, parasite or virus in culture; type: functional; conditions: Mycobacterium tuberculosis
[11] = NIH3T3 cell viability loss – ATP luminescence, mouse fibroblasts, counter-screen, dose response (AID 2010); type: functional, cell-based;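 further: cells exposed to compound for about 90 hours before reading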
[12] = molecular target: T2, Sphingosine 1-phosphate receptor 4 (Homo sapiens, UniProt O95977); experiment: Fluorescence dose response cell-based high throughput screening assay for antagonists of the Sphingosine 1-Phosphate Receptor 4 (S1P4). [Related pubchem assays: 1524 (Confirmation in triplicates.), 1510 (Primary screen.)]; type: functional
T2 sequence (O95977 whole entry): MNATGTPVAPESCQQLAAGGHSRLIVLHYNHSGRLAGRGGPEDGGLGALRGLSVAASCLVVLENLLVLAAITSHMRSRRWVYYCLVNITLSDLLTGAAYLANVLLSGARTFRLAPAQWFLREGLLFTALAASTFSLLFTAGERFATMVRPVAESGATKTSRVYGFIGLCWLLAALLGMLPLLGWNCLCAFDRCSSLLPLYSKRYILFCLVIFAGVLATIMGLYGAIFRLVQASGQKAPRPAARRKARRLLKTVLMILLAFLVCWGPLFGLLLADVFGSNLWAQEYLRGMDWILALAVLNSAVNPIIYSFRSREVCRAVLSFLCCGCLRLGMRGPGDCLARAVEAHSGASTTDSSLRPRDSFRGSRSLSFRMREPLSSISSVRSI

[13] = molecular target: Sphingosine 1-phosphate receptor 1 (Homo sapiens, UniProt P21453); type: functional;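 further: Tango beta-arrestin reporter U2OS cells stimulated with S1P near its EC80; inhibitor potency meaning antagonism of receptor activation by the natural agonist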
Chain of Sphingosine 1-phosphate receptor 1 (P21453 whole entry): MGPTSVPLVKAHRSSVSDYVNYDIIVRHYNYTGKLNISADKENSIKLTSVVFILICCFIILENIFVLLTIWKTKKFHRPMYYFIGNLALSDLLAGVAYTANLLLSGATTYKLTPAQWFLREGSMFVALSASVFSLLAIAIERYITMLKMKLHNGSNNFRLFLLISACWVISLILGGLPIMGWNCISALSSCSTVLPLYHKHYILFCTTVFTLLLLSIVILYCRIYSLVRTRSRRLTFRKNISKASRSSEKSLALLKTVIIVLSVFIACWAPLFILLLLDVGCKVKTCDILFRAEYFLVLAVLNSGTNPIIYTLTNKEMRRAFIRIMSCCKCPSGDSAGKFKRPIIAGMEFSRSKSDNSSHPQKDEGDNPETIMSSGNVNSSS

[14] = molecular target: T3, Replicative DNA helicase DnaB (Mycobacterium tuberculosis, UniProt P9WMR3); experiment: DnaB intein splicing inhibitors, dose response, biochemical, cell-free fluorescence (AID 449749); type: functional
T3 sequence (P9WMR3 whole entry): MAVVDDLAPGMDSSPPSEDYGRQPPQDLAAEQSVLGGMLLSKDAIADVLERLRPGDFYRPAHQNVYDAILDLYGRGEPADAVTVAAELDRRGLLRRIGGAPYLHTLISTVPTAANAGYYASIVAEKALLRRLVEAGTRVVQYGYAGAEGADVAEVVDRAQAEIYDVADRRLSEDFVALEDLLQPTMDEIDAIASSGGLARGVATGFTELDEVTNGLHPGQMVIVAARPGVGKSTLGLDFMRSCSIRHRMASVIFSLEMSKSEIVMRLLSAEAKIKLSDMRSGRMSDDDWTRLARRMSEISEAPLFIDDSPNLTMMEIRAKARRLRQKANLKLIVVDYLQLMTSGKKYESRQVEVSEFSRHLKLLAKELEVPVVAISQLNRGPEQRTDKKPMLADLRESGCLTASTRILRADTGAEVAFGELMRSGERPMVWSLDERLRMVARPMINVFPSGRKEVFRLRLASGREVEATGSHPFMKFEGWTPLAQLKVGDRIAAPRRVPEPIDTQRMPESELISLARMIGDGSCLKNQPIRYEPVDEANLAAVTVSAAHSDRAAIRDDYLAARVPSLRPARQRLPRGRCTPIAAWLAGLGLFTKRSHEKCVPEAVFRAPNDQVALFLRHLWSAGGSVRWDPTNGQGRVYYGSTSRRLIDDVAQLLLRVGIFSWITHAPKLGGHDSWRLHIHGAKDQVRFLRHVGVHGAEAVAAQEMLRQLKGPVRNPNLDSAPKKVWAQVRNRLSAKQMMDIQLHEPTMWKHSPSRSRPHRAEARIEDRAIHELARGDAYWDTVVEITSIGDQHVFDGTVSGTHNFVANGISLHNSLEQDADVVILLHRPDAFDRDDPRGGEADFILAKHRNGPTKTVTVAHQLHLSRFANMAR

[15] = molecular target: T4, Protein RecA (Mycobacterium tuberculosis, UniProt P9WHJ3); experiment: Fluorescence Cell-Free Homogeneous Dose Retest to Identify Inhibitors of RecA-Intein Splicing Activity. [Related pubchem assays (depositor defined):AID2097, AID2223, AID489010, AID492950]; type: functional
T4 sequence (P9WHJ3 whole entry): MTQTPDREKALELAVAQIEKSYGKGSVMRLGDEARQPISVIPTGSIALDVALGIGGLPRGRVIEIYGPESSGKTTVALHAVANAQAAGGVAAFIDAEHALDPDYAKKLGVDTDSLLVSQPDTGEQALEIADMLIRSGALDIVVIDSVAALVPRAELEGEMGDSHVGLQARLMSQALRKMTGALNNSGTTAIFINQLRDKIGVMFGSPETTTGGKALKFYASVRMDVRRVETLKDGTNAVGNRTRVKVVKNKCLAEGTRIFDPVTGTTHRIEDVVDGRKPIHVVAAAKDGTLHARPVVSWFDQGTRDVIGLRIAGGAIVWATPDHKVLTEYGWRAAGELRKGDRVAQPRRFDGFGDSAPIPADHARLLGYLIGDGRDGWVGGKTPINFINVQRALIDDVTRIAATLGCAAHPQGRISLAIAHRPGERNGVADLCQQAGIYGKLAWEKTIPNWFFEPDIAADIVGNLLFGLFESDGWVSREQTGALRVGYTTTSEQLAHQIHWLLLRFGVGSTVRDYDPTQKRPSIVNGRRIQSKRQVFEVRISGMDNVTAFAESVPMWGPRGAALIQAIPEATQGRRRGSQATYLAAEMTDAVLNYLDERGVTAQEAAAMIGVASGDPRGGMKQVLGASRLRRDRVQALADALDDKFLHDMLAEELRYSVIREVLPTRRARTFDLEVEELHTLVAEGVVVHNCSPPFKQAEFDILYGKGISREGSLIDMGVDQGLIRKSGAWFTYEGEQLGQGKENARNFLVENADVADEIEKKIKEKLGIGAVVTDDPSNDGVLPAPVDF

[16] = reduction of Shn3 3'UTR-driven luciferase in osteoblasts – cell-based, Clone20 osteoblasts, firefly luciferase, cherry-picked, dose response (AID 624132); type: functional;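 further: firefly luciferase luminescence from reporter carrying the Shn3 3'UTR in osteoblasts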
[17] = A Cell Based Secondary Assay to Explore Cytotoxicity in THP-1 Cells of Compounds that Modulate Mycobacterium tuberculosis in Media Containing Glycerol versus Media without Glycerol (2).; type: functional
[18] = Vero cell cytotoxicity, cytotoxicity control for M. tuberculosis inhibitor project, purified and synthesized samples, set 3 (AID 504684); type: functional
[19] = loss of viability in HepG2 cells – cell-based, CellTiter-Glo, cherry-picked, cytotoxicity control for Shn3 inhibitor project, dose response (AID 624134); type: functional
[20] = A Cell Based Secondary Assay to Explore Cytotoxicity in HepG2 Cells of Compounds that Modulate Mycobacterium tuberculosis in Media Containing Glycerol versus Media without Glycerol (2).; type: functional
[21] = non-specific 3'UTR reporter inhibition in Clone20-Shn3RL – cell-based, Renilla luciferase, cherry-picked, counter-screen for Shn3 inhibitor project, dose response (AID 624133); type: functional
[22] = Fluorescence-based cell-based high throughput dose response assay for inhibitors of the interaction of nucleotide-binding oligomerization domain containing 2 (NOD2) and the receptor-interacting serine-threonine kinase 2 (RIPK2).; type: functional; conditions: Homo sapiens
[23] = molecular target: Paired box protein Pax-8 (Homo sapiens, UniProt Q06710); experiment: PAX8 transcriptional activity inhibition in RMG-I – RMG-I cells, luciferase, cherry-pick, dose response (AID 687027); type: functional, cell-based;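 further: luciferase reporter driven by Pax8 target thyroperoxidase promoter measured by SteadyGlo luminescence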
Chain of Paired box protein Pax-8 (Q06710 whole entry): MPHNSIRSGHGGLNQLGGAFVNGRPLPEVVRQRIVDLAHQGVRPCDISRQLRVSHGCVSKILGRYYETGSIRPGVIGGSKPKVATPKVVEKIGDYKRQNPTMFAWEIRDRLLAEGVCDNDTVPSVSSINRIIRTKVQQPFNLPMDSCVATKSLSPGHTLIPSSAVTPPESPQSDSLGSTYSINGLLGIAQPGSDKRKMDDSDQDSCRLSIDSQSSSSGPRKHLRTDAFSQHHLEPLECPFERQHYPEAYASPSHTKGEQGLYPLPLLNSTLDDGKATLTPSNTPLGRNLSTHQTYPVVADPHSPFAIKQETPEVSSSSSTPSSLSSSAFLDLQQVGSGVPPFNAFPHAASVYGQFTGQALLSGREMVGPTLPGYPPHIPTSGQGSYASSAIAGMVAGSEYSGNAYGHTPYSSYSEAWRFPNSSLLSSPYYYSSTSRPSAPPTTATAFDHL

[24] = Shn3 transcript knock-down in Clone20 cells – cell-based, qPCR, cherry-pick, dose response (AID 743415); type: functional
[25] = Shn3 3'UTR reporter signal decrease – cell-based, Clone20 osteoblasts, firefly luciferase, cherry-pick, set 2, Schnurri-3 inhibitor project, dose response (AID 720490); type: functional;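 further: actives lower the luminescence signal as inhibitors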
[26] = EF1alpha-driven Renilla reporter with control 3'UTR suppression – Clone20-Shn3RL cells, dual-Glo, cherry-pick, set 2, counter-screen for Shn3 3'UTR targeting project, dose response (AID 720724); type: functional, cell-based; conditions: Dual-Go Shn3RL

Structure (SMILES): O=C1C(=O)N(Cc2ccc(Cl)c(Cl)c2)c2cc(Cl)ccc21
- IC50 [1]: 43.4 µM (active)
- IC50 [2]: 53.1 µM (active)

Structure (SMILES): O=C(O)C1CC(c2c(F)cccc2Cl)=NO1 (stereo unspecified)
- EC50 [3]: > 100 µM (inactive)
- EC50 [4]: > 100 µM (inactive)

Structure (SMILES): OCCc1ccc(Nc2ncnc3[nH]cc(-c4ccccc4)c23)cc1
- Ki [5]: 3.98 µM (active)
- Ki [6]: 0.0794 µM (active)

Structure (SMILES): CCOC(=O)c1ccc(NC(=O)Cn2ncc(Cl)c(Cl)c2=O)cc1
- EC50 [7]: 2.69 µM (inconclusive)
- EC50 [8]: 0.582 µM (active)
- EC50 [9]: 2.06 µM (active)
- CC50 [10]: 6.68 µM (active)
- EC50 [11]: 1.96 µM (active)
- IC50 [12]: 1.47 µM (active)
- IC50 [13]: 9.77 µM (active)
- AC50 [14]: 14.1 µM (active)
- EC50 [15]: 3.77 µM (active)
- AC50 [16]: 2.32 µM (active)
- CC50 [17]: 1.62 µM (active)
- CC50 [18]: 3.21 µM (active)
- AC50 [19]: 46 µM (active)
- CC50 [20]: 8.45 µM (active)
- AC50 [21]: 12.1 µM (active)
- IC50 [22]: 1.77 µM (active)
- AC50 [23]: 6.64 µM (active)
- AC50 [24]: 3.72 µM (active)
- AC50 [25]: 3.69 µM (active)
- AC50 [26]: 5.4 µM (active)
